Read-outs that look alike come from different tables or passages of the source.
Columns and labels:
[1] = test system: A375 (a human melanoma) cell line; test: MTT cytotoxicity assay, A375; type: cell-based; conditions: for IC50: read-out: Cytotoxicity (IC50 ± SEM) against A375; for Viability inhibition, A375: concentration not given
Experimental: (§1) In this study, A375 (a human melanoma), HT29 (a human colon adenocarcinoma), and HFF (a human foreskin fibroblast) cell lines were provided from the Pasteur Institute (Iran). […] 10 mM stock solutions of compounds were prepared in DMSO and diluted in a fresh medium for use. The final concentration of DMSO never exceeded 0.1% (v/v). […] Then the medium was replaced with the respective medium containing ligands or Tl(III) complexes at different concentrations and incubated for 48 h. 10 μL of MTT was added and the medium was removed after 4 h of incubation. Finally, the violet crystal was solubilized in 100 μL DMSO and the absorbance was measured at 570 nm. IC50 value was measured by the standard method. The evaluations were carried out in triplicate[21],[23].

[2] = MTT cytotoxicity assay, HFF; type: cell-based, human; conditions: human
Experimental: as §1

[3] = test system: HT29 (a human colon adenocarcinoma) cell line; test: MTT cytotoxicity assay, HT29; type: cell-based; conditions: for IC50: read-out: Cytotoxicity (IC50 ± SEM) against HT29
Experimental: as §1

[4] = test system: HFF (a human foreskin fibroblast) cell line; test: MTT cytotoxicity assay, HFF; type: cell-based; conditions: MTT, 48 h; read-out: Cytotoxicity (IC50 ± SEM) against HFF
Experimental: as §1

procaspase-9 = test: Western blot, procaspase-9 in A375 cells; type: cell-based, human; conditions: A375, IC50 concentrations, 24 h, densitometry
Experimental: (§2) After incubation with C1 and C3 at IC50 concentrations for 24 h, A375 cells were harvested and lysed in 150 μL of lysis buffer (149 μL RIPA and 1 μL PMSF), and then placed on ice for 15 min. Total proteins were extracted by centrifuging the cell sample at 10,000 rpm and 4 °C for 10 min. Then about 50 μg of purified proteins were mixed with an equal volume of electrophoresis sample buffer, and the mixture was heated for 10 min. Meanwhile, the equal protein content from the control cells was prepared in the same way. The cell sample (10 μL) was loaded onto 10% SDS-PAGE gels and then transferred onto a microporous polyvinylidene difluoride (PVDF) membrane. The membrane was blocked with 5% BSA in TBST buffer for more than 2 h. After the removal of TBST buffer, membranes were incubated with an appropriate dilution of specific primary antibodies in TBST overnight at 4 °C and then washed with TBST three times. The membranes were incubated with secondary antibodies for 1 h and washed with TBST. The immunoreactive signals were detected using an enhanced chemo-luminance kit (Pierce ECL Western Blotting Substrate) following the procedures given in the user manual[46],[63].

A375 cells [5] = test: Intracellular ROS (H2DCF-DA, flow cytometry), A375; type: cell-based, human; conditions: A375, IC50 concentrations, 24 h
Experimental: (§3) The generation of intracellular ROS was evaluated by reactive oxygen species assay kit. 2 mL of A375 cells (1 × 10^6 cells/mL) were induced with C1–C3 (at IC50 concentrations) at 37 °C for 24 h, serum-free medium washed twice. Then, the cells were incubated in 2 mL of serum-free medium containing H2DCF-DA (2 μM) for 30 min at 37 °C, serum-free medium washed twice. Cells were collected and assayed by flow cytometer with excitation wavelength at 489 nm and emission wavelength at 524 nm, and ten thousand events were collected. The DCF fluorescence peak for this cell sample was evaluated and data were analyzed by FlowJo software. This test was performed as explained on HFF cells treatment to C3 (at the highest concentration)[38].

A375 cells [6] = test: Apoptosis by Annexin-V/PI staining; type: cell-based, human; conditions: A375, IC50 concentrations, 24 h
Experimental: Annexin V-FITC and PI staining (Annexin V/PI) apoptosis detection kit were used for assessing the percentage of dead cells by apoptosis pathway. Briefly, A375 cells were treated with C1 and C3 at IC50 concentrations. After 24 h of incubation, cells were washed with PBS, trypsinized, centrifuged, and re-suspended in 100 μL binding buffer at a concentration of 1 × 10^6 cells/mL, then added 5 μL of annexin V-FITC conjugate (30 min), and 5 μL of Propidium Iodide (PI) to each cell suspension (20 min) in the dark. The samples were analyzed using a flow cytometer (Attune Nxt, Thermo Fisher Scientific-US), and the results were assessed using the FlowJo software.

A375 cells [7] = test: Cell cycle analysis (PI, flow cytometry), A375; type: cell-based, human; conditions: A375, IC50 concentrations, 24 h; with respect to untreated control cells
Experimental: (§4) A375 cells were seeded in 6-well plates with 1.5 × 10^6 cells /well and treated with the C1 and C3 at IC50 concentrations for 24 h. Cells were trypsinized, collected, and fixed in ice-cold 75% ethanol at − 20 °C overnight. After centrifugation, the fixed cells were rinsed with ice-cold phosphate-buffered saline (PBS) and resuspended in 0.5 mL of PBS containing 100 μg/mL DNase-free RNase A (Thermo Fisher Scientific Biosciences GmbH, St. Leon-Rot, Germany), 50 μg/mL propidium iodide (PI; Sigma Aldrich) in the dark for 30 min. The distribution of the cells in different phases of the cell cycle was determined using flow cytometry (Attune Nxt, Thermo Fisher Scientific-US) and FlowJo software v10.6.1 (https://www.flowjo.com/solutions/flowjo/downloads) was used to analyze the data. This test was performed as explained on HFF cells treatment to C3 (at the highest concentration)[62].

p53 = test: Western blot, p53 in A375 cells; type: cell-based, human; conditions: A375, IC50 concentrations, 24 h
Experimental: as §2

Bax/Bcl-2 = test: Western blot, Bax/Bcl-2 ratio in A375 cells; type: cell-based, human; conditions: A375, IC50 concentrations, 24 h
Experimental: as §2

A375 cells [8] = test: Mitochondrial membrane potential assay (JC-1), A375; type: cell-based, human; conditions: A375, IC50 concentrations, JC-1, 24 h
Experimental: (§5) Mitochondrial membrane potential analysis was determined by fluorescent dye JC-1 staining according to the manufacturer's protocol for the JC-1 assay kit. In brief, 2 mL of A375 cells (1 × 10^5 cells/mL) were treated with IC50 concentrations of C1 and C3 in 6-well plates for […]. Cells were harvested and washed three times with PBS after 24 h of incubation. Then cells were stained with 1 mL of JC-1 stock solution (10 mg/mL). Assays were initiated by incubating A375 cells with JC-1 for 30 min at 37 °C in the dark and detected with a fluorescence microscope. This test was performed as explained on HFF cells treatment to C3 (at the highest concentration).

[9] = Cyclic voltammetry of the complexes; type: physicochemical; conditions: versus Ag/AgCl, KCl 0.1 M, GCE, scan rate 50 V/s; for formal potential E0': 4 × 10^–3 mol/dm^3 in H2O; for EA (anodic peak potential) / EC (cathodic peak potential): H2O
Text: The electrochemical behavior of the complexes and also their ligands was studied by the cyclic voltammograms in the potential range of + 1.5 to –1.5 V and a scan rate of 50 Vs^–1. […] Redox couples at E^0ˊ 0.109, –0.051, and 0.244 V were obtained for C1, C2, and C3, respectively. The electrochemical oxidation of all three complexes seems be a one-stage process which includes irreversible couples with EC = –0.363 V, EA = 0.472 V for C1, EC = –0.271 V, EA = 0.220 V for C2 and EC = –0.337 V, EA = 0.581 V for C3. The peaks can be interpreted according to the Tl(III)/Tl(I) redox system for complexes. […] Therefore, redox couples are related to only the metal centers in complexes[27],[28].
Figure 4 Cyclic voltammogram of complexes c = 4 × 10^–3 mol/dm^3 in H2O medium, KCl (0.1 M) at GCE, scan rate 50 V/s.
Pyridine-2,6-dicarboxylic acid, 4-hydroxy-pyridine-2,6-dicarboxylic acid, 2-aminobenzimidazole, 4-aminopyridine, and thallium(III) nitrate trihydrate were purchased from the commercial sources and were used as received. The solvents were distilled for all synthetic works. Melting points were obtained on an Electrothermal IA-9100 apparatus. The FT-IR spectra were recorded on a Bruker Vector 22 FT-IR spectrometer using KBr pellets. Electronic spectra were recorded on Specord 210, Analytik Jena spectrophotometer in the range of 200–900 nm at room temperature. The ^1HNMR spectra were obtained from Bruker Ultrashield 400 spectrometer. Microanalyses (C, H, N) were measured with a Perkin-Elmer 2004(II) elemental analyzer. Electrochemical experiments were performed using a µAUTOLAB modular electrochemical system (ECO Chemie, Utrecht, the Netherlands) equipped with a PGSTAT type III module driven by GPES software in conjunction with a conventional three-electrode system an Ag/AgCl/3 M KCl and platinum wire as reference and counter electrode respectively and a GC as the working electrode.

A375 cells [10] = test: Cellular uptake of Tl (ICP-MS), A375; type: cell-based, human; conditions: 10 μM, 24 h
Experimental: A375 cells (1 × 10^7 cells) were treated with 10 μM C1–C3 and Tl(NO3)3.3H2O, respectively, for 24 h at 37 °C, 5% CO2, and 95% air. Cold PBS (phosphate buffer, pH = 7.4) was used for rinsing the cells three times after being collected. Cells were lysed in 1 M NaOH (1 mL) and diluted with 2% (v/v) HNO3 (5 mL) to determine whole-cell thallium content. The amount of thallium taken up by the cells was measured by ICP-MS. The instrument calibrates thallium using a standard solution containing 10, 50, 100, 500, and 1000 ppb thallium. This test was performed as explained on HFF cells treatment to C3[38].

HFF cells [11] = test: Intracellular ROS (H2DCF-DA, flow cytometry), HFF; type: cell-based, human; conditions: highest concentration, 24 h, compared with A375
Experimental: as §3

HFF cells [12] = test: Cell cycle analysis (PI, flow cytometry), HFF; type: cell-based, human; conditions: highest concentration, 24 h
Experimental: as §4

HFF cells [13] = test: Mitochondrial membrane potential assay (JC-1), HFF; type: cell-based, human; conditions: highest concentration, JC-1, 24 h
Experimental: as §5

[14] = MTT, 48 h, read-out: Cytotoxicity (IC50 ± SEM) against HFF

## Nc1nc2ccccc2[nH]1 [2-ab, 2-aminobenzimidazole]
[1]; Homo sapiens, A-375, 48 h
  IC50: > 500 µM
[2]
  IC50 at 48 h: > 500 µM
[3]; Homo sapiens, HT-29, 48 h
  IC50: > 500 µM

## Nc1ccncc1 [4-apy, 4-aminopyridine]
[1]; Homo sapiens, A-375, MTT, 48 h
  IC50: 491.9 ± 1.56 µM
[2]; [14]
  IC50: > 500 µM
[3]; Homo sapiens, HT-29, MTT, 48 h
  IC50: > 500 µM

## O=C1[O][Pt]2([NH][C@@H]3CCCC[C@H]3[NH]2)[O]C1=O [Oxaliplatin, reference compound]
[1]; MTT, 48 h
  IC50: 331 ± 2.69 µM
[4]
  IC50: 429.2 ± 2.32 µM
[3]; MTT, 48 h
  IC50: 323.1 ± 2.87 µM

## O=C(O)c1cc(O)cc(C(=O)O)n1 [hpydcH2, 4-hydroxy-pyridine-2,6-dicarboxylic acid]
[1]; Homo sapiens, A-375, MTT, 48 h
  IC50: > 500 µM
[2]; [14]
  IC50: > 500 µM
[3]; Homo sapiens, HT-29, MTT, 48 h
  IC50: > 500 µM

## O=C(O)c1cccc(C(=O)O)n1 [pydcH2, 2,6-Pyridinedicarboxylic acid]
[1]; Homo sapiens, A-375, 48 h
  IC50: 442.6 ± 1.22 µM
[2]; [14]
  IC50 at 48 h: > 500 µM
[3]; Homo sapiens, HT-29, 48 h
  IC50: 430.2 ± 2.09 µM

## (2-abH)2[Tl(pydc)2(H2O)2]2∙11H2O [C1]
procaspase-9
  procaspase-9 level compared to control: 64.12%
[1]; MTT, 48 h
  Viability inhibition, A375: 55.44%
  IC50: 81.5 ± 1.02 µM
A375 cells [5]
  ROS level (DCF oxidation), more effective than vehicle control-treated: 189.9%
A375 cells [6]
  apoptosis, more effective than vehicle control-treated: 62.24%
  early apoptosis (annexin V+/PI-, Q3): 14.22%
  late apoptosis (annexin V+/PI+, Q2): 48.01%
A375 cells [7]
  rise in the cellular population of the G2-M phase: 16.91%
p53
  level of p53: significantly enhanced
Bax/Bcl-2
  ratio of Bax/Bcl-2: 3.60 fold
[4]
  IC50: > 500 µM
A375 cells [8]
  mitochondrial membrane potential (MMP) in A375 cells: MMP reduction
[3]; MTT, 48 h
  IC50: 354.4 ± 0.71 µM
[9]
  formal potential E0': 0.109 V
  EA (anodic peak potential): 0.472 V
  EC (cathodic peak potential): –0.363 V

## (2-abH)[Tl(hpydc)2(H2O)2]∙6H2O [C2]
[1]; MTT, 48 h
  Viability inhibition, A375: 35.28%
  IC50: 421.1 ± 0.55 µM
A375 cells [5]
  ROS level (DCF oxidation), more effective than vehicle control-treated: 23.5%
[4]
  IC50: > 500 µM
[3]; MTT, 48 h
  IC50: 486.2 ± 0.69 µM
[9]
  formal potential E0': –0.051 V
  EA (anodic peak potential): 0.220 V
  EC (cathodic peak potential): –0.271 V

## (4-apyH)[Tl(pydc)(pydcH)2]0.5H2O [C3]
procaspase-9
  procaspase-9 level compared to control: 110.97%
[1]; MTT, 48 h
  Viability inhibition, A375: 69.62%
  IC50: 7.23 ± 0.93 µM
A375 cells [5]
  ROS level (DCF oxidation), more effective than vehicle control-treated: 229.4%
A375 cells [6]
  apoptosis, more effective than vehicle control-treated: 61.66%
  early apoptosis (annexin V+/PI-, Q3): 11.47%
  late apoptosis (annexin V+/PI+, Q2): 50.19%
A375 cells [10]
  permeation in A375 cells relative to normal (HFF) cells: almost two times more than normal cells
A375 cells [7]
  rise in the cellular population of the G2-M phase: 21.10%
HFF cells [11]
  production of ROS in HFF cells: much less than what was produced in cancer cells of A375
p53
  level of p53: significantly enhanced
Bax/Bcl-2
  ratio of Bax/Bcl-2: 5.25 fold
[4]
  IC50: > 500 µM
A375 cells [8]
  mitochondrial membrane potential (MMP) in A375 cells: MMP reduction
[3]; MTT, 48 h, concentration not given
  Viability inhibition, HT29: 53.12%
[3]; MTT, 48 h
  IC50: 193.2 ± 1.12 µM
HFF cells [12]
  effect on cell cycle distribution in HFF cells: does not have a remarkable effect on the cellular population in none of the phases
[9]
  formal potential E0': 0.244 V
  EA (anodic peak potential): 0.581 V
  EC (cathodic peak potential): –0.337 V
HFF cells [13]
  changes in MMP of HFF cells: insignificant changes

Source: paper PMC8333620, “Novel Tl(III) complexes containing pyridine-2,6-dicarboxylate derivatives with selective anticancer activity through inducing mitochondria-mediated apoptosis in A375 cells” (Scientific Reports, 2021)
